Assay results from BindingDB's records for doi:10.7270/Q2BR8QM3 (Nmmlsc, 2008).

Target: T1, Bcl-2-like protein 2 (Homo sapiens, UniProt Q92843)
T1 sequence (Q92843 whole entry): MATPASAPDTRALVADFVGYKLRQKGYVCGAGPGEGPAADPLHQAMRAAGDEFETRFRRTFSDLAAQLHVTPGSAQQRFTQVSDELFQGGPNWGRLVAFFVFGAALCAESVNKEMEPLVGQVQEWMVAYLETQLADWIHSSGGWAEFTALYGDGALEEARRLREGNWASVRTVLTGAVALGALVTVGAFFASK
Assay: Bcl-W/Bim binding regulators – biochemical, multiplexed, bead-based flow cytometry, fluorescence, dose response (AID 1330)

[1] = inactive by the depositor's call

SMILES	EC50 [1]	EC50
COCCNC(=S)Nc1cc(OC)c(OC)cc1C#N [1-(2-cyano-4,5-dimethoxy-phenyl)-3-(2-methoxyethyl)thiourea]	14.5 µM	–
O=C(Nc1cccc(C(F)(F)F)c1)c1ccc2nc(-c3ccco3)c(-c3ccco3)nc2c1 [SMR000142217]	–	9.02 µM
COc1ccc(CC(=O)Nc2ccc(-c3nc4cc(C)ccc4o3)c(O)c2)cc1OC [2-(3,4-dimethoxyphenyl)-N-[(4Z)-3-keto-4-(5-methyl-3H-1,3-benzoxazol-2-ylidene)cyclohexa-1,5-dien-1-yl]acetamide]	–	10.1 µM
O=C(Nc1ccccc1)c1ccc2nc(-c3ccco3)c(-c3ccco3)nc2c1 [2,3-di-2-furyl-N-phenyl-6-quinoxalinecarboxamide]	18.2 µM	–
O=C(CSc1ccc2nnc(-c3ccccn3)n2n1)Nc1nccs1 [2-[[3-(2-pyridinyl)-[1,2,4]triazolo[4,3-b]pyridazin-6-yl]thio]-N-(2-thiazolyl)acetamide]	14.1 µM	–
O=C(Nc1ccc2nc(-c3ccco3)c(-c3ccco3)nc2c1)NC1CC1 [SMR000118524]	16.4 µM	–
O=[N+]([O-])c1ccc(N=NCc2ccc(O)c(O)c2O)c(S(=O)(=O)N2CCOCC2)c1 [MLS000336720]	–	3.52 µM
Cc1ccc(/C=C/C(=O)c2ccccc(=O)c2O)cc1C [MLS000756172]	27.9 µM	–
CCOCCCn1c(N)c(C(=O)Nc2sc3c(c2C(=O)OC)CCCC3)c2nc3ccccc3nc21	1.8 µM	–
O=C(c1ccccc1)c1ccc2nc(-c3ccco3)c(-c3ccco3)nc2c1	14.8 µM	–
CSc1nnc2c3cc(C)ccc3n(Cc3ccccc3)c2n1 [SMR000046397]	29.6 µM	–

Second part, the compound after the results:

EC50 [1]	EC50	SMILES
4.71 µM	–	CCN(CC)c1ccc(Nc2nc(N3CCOCC3)c3ccccc3n2)cc1 [4-N,4-N-diethyl-1-N-(4-morpholin-4-ylquinazolin-2-yl)benzene-1,4-diamine]
4.62 µM	–	COc1cc2nc(=S)[nH]c(NCC3CCCO3)c2cc1OC (centres undefined) [6,7-dimethoxy-4-(2-oxolanylmethylamino)-1H-quinazoline-2-thione]
2.67 µM	–	CCOC(=O)c1ccc(Nc2nc(C(=O)OCC)nc3ccccc23)cc1
0.17 µM	–	CCN(CC)c1ccc(NC2=C(Cl)C(=O)c3ccccc3C2=O)cc1 [2-chloro-3-{[4-(diethylamino)phenyl]amino}naphthoquinone]
9 µM	–	COc1cc2nc(=S)[nH]c(NCCCOC(C)C)c2cc1OC
10.1 µM	–	O=C(NC1=C(Nc2ccc(Cl)cc2)C(=O)c2ccccc2C1=O)c1ccccc1
3.68 µM	–	COCCCNc1nc(S)nc2cc(OC)c(OC)cc12 [SMR000026607]
13.6 µM	–	Cc1cc2n(c1)CCn1c(C)ccc1-2 [MLS000104384]
2.98 µM	–	Oc1ccc(NCc2ccccc2OCc2ccccc2)cc1 [SMR000231540]
3.56 µM	–	Cc1ccc(-c2ccc(/C=C/C(=O)c3ccccc3)o2)cc1
1.31 µM	–	COC(=O)c1c(C(=O)OC)c2cccc3cc(-c4ccccc4)c4ccc1c4n32 [SMR000161417]
2.2 µM	–	CCOCCCNc1nc(S)nc2cc(OC)c(OC)cc12
2.31 µM	–	CCOc1ccccc1CNc1ccc(O)cc1
